From a melting point compilation (Tetko et al.; mined from patent text by program, amines drawn as free bases though some values may be those of a salt)

Compound	melting point [°C]
Cn1ncc2c1-c1cc(Cl)ccc1N(C(=O)C1CC1)C2	146 to 150
Cc1ccc(C(O)c2ccc(N)cc2)nc1 (stereo unspecified)	114 to 115
CCCCCS(=O)(=O)NC(=O)OCc1ccc(OS(=O)(=O)CCC)cc1Oc1ncc(C(F)(F)F)cc1Cl	86 to 89
C=C1C(NC(=O)C(F)(F)F)CC(OC)OC1C (stereo unspecified)	160 to 162
COC(=O)C1Cc2ccccc2N1C(=O)C(C)(C)CSC(C)=O (stereo unspecified)	136 to 138
COc1ccccc1C=Cc1ccccc1	69 to 70
N=C1NC(=O)C(Cc2ccc(OCCN3CCOCC3)cc2)S1 (stereo unspecified)	189 to 190
COc1ccc(-c2cnc(NC(=O)Cc3ccccc3)c(Cc3ccccc3)n2)cc1	198 to 202
C[C@@H](CN1CCc2ccc3c(c21)OCCO3)NC(=O)OC(C)(C)C	130 to 132
Cc1nc(-c2ccccc2)nc(-c2cccc([N+](=O)[O-])c2)c1C(=O)OCCO	84 to 86
CCCCCCCCCCC1Cc2ccc(C(=O)O)cc2N1 (racemic)	123 to 125
COc1cc(C(=O)c2ccc(OC)c(OC)c2OC)cc(OC)c1OC	125 to 126
CC(C)(C)OC(=O)NCCCC(=O)NCc1cccc2c1CN(C1CCC(=O)NC1=O)C2=O (stereo unspecified)	199 to 201
C=CCC1(C(O)C(c2cccc(Cl)c2)n2ccnc2)CC2C=CC1C2 (stereo unspecified)	134 to 135
O=C(O)c1nccnc1N1CCN(CC(O)CO)CC1 (stereo unspecified)	175 to 184
COc1ccc(C(=O)Nc2ccc(F)c(F)c2)cc1NCc1cccc(C(=O)O)c1	240 to 243
CCCCCOC(=O)Cc1nc(-c2ccccc2)oc1-c1ccsc1	61 to 62
O=C(O)CCCNC1=NS(=O)(=O)c2ccccc21	200 to 202
CCC(CC)c1ccc(Cl)c2nc(Nc3ccc(OC)nc3OC)n(CCCCO)c12	116 to 118
O=C(/C=C/c1ccccc1Cl)/C=C/c1ccccc1Cl	116 to 118
CCC(Cc1cc(C(C)(C)C)c(O)c(C(C)(C)C)c1)(C(=O)OCC1(C)C(C)(C)C=C(O)CC1(C)C)C(=O)OCC1(C)C(C)(C)C=C(O)CC1(C)C (stereo unspecified)	166
CCOC(=O)Cc1c(C(=O)O)c2cc(Oc3ccc(C(F)(F)F)cn3)ccc2n1-c1ccc(OC(C)C)cc1	202
COc1ccc(Cc2cc(S)ccc2OC)cc1	78
CCOC(=O)CN(CP(=O)(ONC1CCCCC1)ONC1CCCCC1)C(=O)C(F)(F)F	118 to 123

Compound	melting point [°C]
CC(=O)NC[C@H]1CN(c2ccc(C3CCN(C(=O)COCc4ccccc4)CC3)c(F)c2)C(=O)O1	147 to 149
CS(=O)(=O)N1CCC2OC2CC1 (stereo unspecified)	133 to 134
CC(=O)OC1CSC(Oc2ccc(-c3cnoc3C)nc2)C(OC(C)=O)C1OC(C)=O (stereo unspecified)	165
Cc1ccc(O)c2c1CCC1C2CCC2(C)C(O)CCC12 (stereo unspecified)	226 to 229
O=C(O)c1cc(F)cc(-c2cccc3cc(Cc4cccc(C(F)(F)F)c4)sc23)c1	140 to 142
O=S1(=O)NC=Nc2cc(C(F)(F)F)c(F)cc21	152
CCn1cc2c3c(cccc31)CN(C(=O)OCc1ccccc1)C2	112 to 114
CC(=NO)c1ccc(N2CCN(C(=O)CCCCCCC(=O)NO)CC2)cc1	147 to 148
C#CCc1ccc2c(C)c(C(=O)O)c(=O)oc2c1	172
CCOC(=O)CC(C)(O)c1ccc(-c2ccc(F)cc2F)cc1 (stereo unspecified)	96 to 97
COC(=O)CNC(=O)C1CSSC1	73 to 75
NC(=O)Cc1cc(=O)oc2cc(OCc3cccc(Cl)c3)ccc12	185 to 186
N#Cc1nn(-c2c(Cl)cc(C(F)(F)F)cc2Cl)c(C(O)C(F)(F)F)c1SC(F)(F)F (stereo unspecified)	106
CCn1c(=O)c2c(nc(C=Cc3cccc(C(=O)O)c3)n2C)n(CC)c1=O	260 to 262
Nc1cc(Oc2ccc(C(F)(F)F)cc2Cl)ccc1[N+](=O)[O-]	86 to 92
CCOC(Cc1ccc(OCCN2COc3ccccc3C2=O)cc1)C(=O)O (stereo unspecified)	103 to 105
CCOC(=O)CCNCC(O)COc1cccc(OC)c1 (stereo unspecified)	72
Cn1c(=O)[nH]c(=O)n(-c2cc(Oc3ncc(C(F)(F)F)cc3Cl)ccc2Br)c1=O	97 to 110
O=C1CCCC(Cl)=C1C(=O)c1ccc(Cl)c(OCCn2cnnn2)c1Cl	122 to 124
COc1ccc(CC(=O)c2cc(OC)cc(OC)c2)cc1	93 to 94
COc1ccc2c(c1)C(C(=O)N(Cc1ccc3c(c1)OCO3)c1ccc(C(C)C)cc1)CCC2 (stereo unspecified)	97 to 98
C=CCc1c(O)cc(O)c(C)c1C(=O)OC	72 to 95
O=C(O)Cc1csc(-c2cccc(O)c2)n1	172 to 174
C#CCCCN=C(NC#N)NCCSCc1[nH]cnc1C	99 to 103

Compound	melting point [°C]
Cc1cc(O)nc(-c2cccc(-c3ccccc3)n2)n1	172
CC(C)CCCC(C)C1CCC2C3=CC=C4CC(O)CC(O)C4(C)C3CCC21C (stereo unspecified)	155 to 158
C=CCC(C(=O)OC)(C(=O)OC)C(Cc1ccccc1N)c1ccc(OC)cc1 (stereo unspecified)	117 to 118
CCc1noc(-c2cn(-c3cc(Cl)ccc3OC)cn2)n1	139 to 140
O=C(O)c1nc(-c2ccccc2Cl)nc2ccccc12	171
COc1cc(-c2cccc(C)c2)cc2oc(=O)c(C)c(C)c12	114
CCOc1cccc(-c2nn(C(C)c3oc4ccccc4c(=O)c3-c3cccc(F)c3)c3ncnc(N)c23)c1 (stereo unspecified)	162 to 165
COc1ccc(CC(NC(=O)c2ccccc2)c2cccnc2)cc1OC (stereo unspecified)	156 to 158
Clc1ccc2c(c1)c(-c1ccccc1)nc1nncn12	295 to 297
CCCCN(C(C)=O)C1NC(=O)N(c2ccc(OC(C)=O)cc2)C(=O)N1	206 to 208
COC=C(C(=O)OC)c1ccccc1CC(=O)c1ccccc1	97 to 99
COc1cc(-c2ccc(C#N)cc2)oc1-c1ccc(C#N)cc1	257 to 258
Cn1c(=O)c(-c2ccc(Cl)cc2Cl)cc2c3cc(-c4nc(CC(=O)O)cs4)ccc3n(C)c21	234 to 239
Cn1cc(-c2nc3c(N[C@H]4[C@@H](C(N)=O)[C@@H]5C=C[C@H]4C5)ccnc3[nH]2)cn1	236 to 238
O=S(=O)(Nc1cccc(OCc2ccc3ccccc3n2)c1)C(F)(F)F	144 to 146
CC(=O)N1CCc2ccccc2C1Cc1ccccc1N (stereo unspecified)	142 to 148
CCOC1=Nc2c(C)cccc2Nc2ncccc21	135 to 136
CCC(=O)Nc1c(-n2cncn2)cnn1-c1c(Cl)cc(C(F)(F)F)cc1Cl	167 to 169
CCCc1nn(C)c2c(=O)n(CCCOc3ccc(SC(C)(C)C(=O)O)cc3)c(C)nc12	140 to 142
COc1ccc(Oc2ccc(C(=O)CC(SC(C)=O)C(=O)O)cc2)cc1 (stereo unspecified)	110 to 111
c1ccc(COc2cccc(-c3nc(COc4ccc(CCCn5ccnc5)cc4)co3)c2)cc1	112 to 113
CCOC(=O)c1cn(-c2nccs2)c2nc(Cl)cc(NCc3ccccc3)c2c1=O	141 to 143
COCCO[C@@H]1c2ccn3c(Br)c(C)nc3c2N[C@H](c2ccccc2)[C@H]1O	153 to 154
